What follows are compounds tested against T1, M2 muscarinic receptor (Rattus norvegicus, UniProt P10980) (assay: Radioligand binding assay, [3H]-N-methylscopolamine, rat heart membranes). Settings: [3H]NMS binding.
T1 construct: Submandibular glands and heart were isolated and placed in ice cold homogenizing buffer; from tissue; host or cells: rat heart membrane homogenate
T1 sequence (P10980 1-466): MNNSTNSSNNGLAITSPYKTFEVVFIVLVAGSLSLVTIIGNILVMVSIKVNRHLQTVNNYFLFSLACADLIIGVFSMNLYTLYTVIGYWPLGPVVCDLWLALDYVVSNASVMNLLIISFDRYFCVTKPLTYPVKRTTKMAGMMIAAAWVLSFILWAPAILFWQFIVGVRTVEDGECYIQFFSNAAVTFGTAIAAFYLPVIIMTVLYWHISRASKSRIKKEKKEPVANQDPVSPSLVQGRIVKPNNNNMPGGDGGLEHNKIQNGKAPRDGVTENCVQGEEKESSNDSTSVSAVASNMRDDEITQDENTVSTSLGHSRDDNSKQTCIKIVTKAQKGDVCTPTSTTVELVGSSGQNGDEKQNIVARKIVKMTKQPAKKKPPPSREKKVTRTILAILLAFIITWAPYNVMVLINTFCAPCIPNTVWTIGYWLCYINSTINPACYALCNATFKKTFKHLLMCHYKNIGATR

Ki [nM]	Structure (SMILES)
> 10000	Cc1ccc(OCc2ccccc2)c(C(CCN2CC3(C)CC3(C)C2)c2ccccc2)c1 (stereo not drawn) [Compound No. 3, 1-(1,5-dimethyl-3-azabicyclo[3.1.0]hex-3-yl)-3-(2-benzyloxy-5-methylphenyl)-3-phenyl propane]
34	Cc1ccc(O)c(C(CCN2CC3CC3C2C)c2ccccc2)c1 (single isomer, unassigned) [Compound No. 8, 1-(2-methyl-3-azabicyclo[3.1.0]hex-3-yl)-3-(2-hydroxy-5-methylphenyl)-3-phenyl propane]
221	Cc1ccc(O)c(C(CCN2CC3CC3(C)C2)c2ccccc2)c1 (stereo not drawn) [Compound No. 6, 1-(1-methyl-3-azabicyclo[3.1.0]hex-3-yl)-3-(2-hydroxy-5-methylphenyl)-3-phenyl propane]
42	Cc1ccc(O)c(C(CCN2CC3CC3C2C)c2ccccc2)c1 (single isomer, unassigned) [Compound No. 9, 1-(2-methyl-3-azabicyclo[3.1.0]hex-3-yl)-3-(2-hydroxy-5-methylphenyl)-3-phenyl propane]
> 1000	Cc1ccc(O)c(C(CCN2CC3(C)CC3(C)C2)c2ccccc2)c1 (stereo not drawn) [Compound No. 4, 1-(1,5-dimethyl-3-azabicyclo[3.1.0]hex-3-yl)-3-(2-hydroxy-5-methylphenyl)-3-phenyl propane]
105	Cc1ccc(O)c(C(CCN2CC3CC3C2)c2ccccc2)c1 (stereo not drawn) [Compound No. 2, 1-(3-azabicyclo[3.1.0]hex-3-yl)-3-(2-hydroxy-5-methylphenyl)-3-phenyl propane]
